Data on twelve compounds can be found in US11254690B2, “PTEFb inhibiting macrocyclic compounds” (BAYER AKTIENGESELLSCHAFT, priority 2017, dated 2022).

The subject of one assay is A2780 cells. Description: Proliferation assay, A2780. It is filed as cell-based, human. The note with it: 72-hour exposure, Cell Titre-Glo, read-out: Inhibition of A2780 cell proliferation IC50. How it is done:
Cultivated tumour cells (HeLa, human cervical tumour cells, ATCC CCL-2; NCI-H460, human non-small cell lung carcinoma cells, ATCC HTB-177; DU 145, hormone-independent human prostate carcinoma cells, ATCC HTB-81; HeLa-MaTu-ADR, multidrug-resistant human cervical carcinoma cells, EPO-GmbH Berlin; Caco-2, human colorectal carcinoma cells, ATCC HTB-37; B16F10, mouse melanoma cells, ATCC CRL-6475) were plated at a density of 5,000 cells/well (DU145, HeLa-MaTu-ADR), 3,000 cells/well (NCI-H460, HeLa), 1,500 cells/well (Caco-2), or 1,000 cells/well (B16F10) in a 96-well multititer plate in 200 μL of their respective growth medium supplemented 10% fetal calf serum. After 24 hours, the cells of one plate (zero-point plate) were stained with crystal violet (see below), while the medium of the other plates was supplemented with the test substances in various concentrations (0 μM, as well as in the range of 0.0001-10 μM; the final concentration of the solvent dimethyl sulfoxide was adjusted to 0.1%) using a Hewlett-Packard HP D300 Digital Dispenser. The cells were incubated for 4 days in the presence of test substances. Cell proliferation was determined by staining the cells with crystal violet: the cells were fixed by adding 20 μl/measuring point of an 11% glutaric aldehyde solution for 15 minutes at room temperature. After three washing cycles of the fixed cells with water, the plates were dried at room temperature. The cells were stained by adding 100 μl/measuring point of a 0.1% crystal violet solution (pH 3.0). After three washing cycles of the stained cells with water, the plates were dried at room temperature. The dye was dissolved by adding 100 μl/measuring point of a 10% acetic acid solution. The extinction was determined by photometry at a wavelength of 595 nm. The change of cell number, in percent, was calculated by normalization of the measured values to the extinction values of the zero-point plate (=0%) and the extinction of the untreated ([…]) cells (=100%). The IC50 values (inhibitory concentration at 50% of maximal effect) were determined by means of a 4 parameter fit. A2780 human ovarian carcinoma cells (ECACC #93112519) and non-adherent MOLM-13 human acute myeloid leukemia cells (DSMZ ACC 554) were seeded at a density of 3,000 cell/well (A2780) or 5,000 cells/well (MOLM-13) in a 96-well multititer plate in 150 μL of growth medium supplemented 10% fetal calf serum. After 24 hours, cell viability of one plate (zero-point plate) was determined with the Cell Titre-Glo Luminescent Cell Viability Assay (Promega), while the medium of the other plates was supplemented with the test substances in various concentrations (0 μM, as well as in the range of 0.0001-10 μM; the final concentration of the solvent dimethyl sulfoxide was adjusted to 0.1%) using a Hewlett-Packard HP D300 Digital Dispenser. Cell viability was assessed after 72-hour exposure with the Cell Titre-Glo Luminescent Cell Viability Assay (Promega). IC50 values (inhibitory concentration at 50% of maximal effect) were determined by means of a 4 parameter fit on measurement data which were normalized to vehicle (DMSO) treated cells (=100%) and measurement readings taken immediately before compound exposure (=0%).

Another assay deals with T1, CDK2/CycE (Homo sapiens, UniProt P24941).
T1 construct: GST; purchased ProQinase GmbH (Freiburg, Germany); host or cells: insect cells (Sf9)
Description: CDK2/CycE high ATP kinase assay (TR-FRET, 2 mM ATP). It counts as biochemical. The note with it: Method 2b. Summed up: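 Recombinant GST-tagged human CDK2 and CycE from Sf9 cells (about 10 ng/ml), biotinylated peptide substrate, 2 mM ATP, Tris pH 8.0 buffer; compound pre-incubated 15 min at 22° C. Phospho-substrate detected by TR-FRET with anti-RB(pSer807/pSer811) antibody, 665/622 nm ratio; normalised to no-inhibitor and no-enzyme controls.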

Structures are written as SMILES. Where two headings read alike, the source gives them in different places.

For `CC(C)(C)OC(=O)N=S(C)(=O)Cc1cc2cc(c1)OCCCCOc1cc(ccc1F)-c1nc(ncc1F)N2` (racemic) [Example 3, (rac)-tert-butyl [{[3,20-difluoro-13,18-dioxa-5,7,25-triazatetracyclo[17.3.1.1^2,6.1^8,12]pentacosa-1(23),2(25),3,5,8(24),9,11,19,21-nonaen-10-yl]methyl}(methyl)oxido-λ^6-sulfanylidene]carbamate], the IC50 in the assay with A2780 cells (Homo sapiens, A2780, 72 h) was 0.056 µM; on CDK2/CycE, greater than 20 µM.

As for `CC1CCCOc2cc(ccc2F)-c2cc(ncc2F)Nc2cc(CS(C)(=N)=O)cc(n2)O1` (single isomer, unassigned) [Example 17, 3,20-difluoro-14-methyl-10-[(S-methylsulfonimidoyl)methyl]-13,18-dioxa-5,7,24-triazatetracyclo[17.3.1.1^2,6.1^8,12]pentacosa-1(23),2(25),3,5,8(24),9,11,19,21-nonaene], the IC50 in the assay with A2780 cells was 0.006 µM; at CDK2/CycE, 0.132 µM.

For the compound `CS(=N)(=O)Cc1cc2nc(c1)OCCCCOc1cc(ccc1F)-c1cc(ncc1F)N2` (racemic) [Example 2, (rac)-3,20-difluoro-10-[(S-methylsulfonimidoyl)methyl]-13,18-dioxa-5,7,24-triazatetracyclo[17.3.1.1^2,6.1^8,12]pentacosa-1(23),2(25),3,5,8(24),9,11,19,21-nonaene], the IC50 in the assay with A2780 cells (Homo sapiens, A2780, 72 h) came out at 0.009 µM; at CDK2/CycE it was 0.737 µM.

`CS(=N)(=O)Cc1cc2cc(c1)OCCCOc1cc(ccc1F)-c1nc(ncc1F)N2` (racemic) [Example 10, (rac)-3,19-difluoro-10-[(S-methylsulfonimidoyl)methyl]-13,17-dioxa-5,7,24-triazatetracyclo[16.3.1.1^2,6.1^8,12]tetracosa-1(22),2(24),3,5,8(23),9,11,18,20-nonaene]: the IC50 with A2780 cells (Homo sapiens, A2780, 72 h) came out at 0.048 µM; at CDK2/CycE, 4.75 µM.

In the case of `CC1CCCCOc2cc(ccc2F)-c2cc(ncc2F)Nc2cc(CS(C)(=N)=O)cc(n2)O1` (single isomer, unassigned) [Example 22, 3,21-difluoro-14-methyl-10-[(S-methylsulfonimidoyl)methyl]-13,19-dioxa-5,7,25-triazatetracyclo[18.3.1.1^2,6.1^8,12]hexacosa-1(24),2(26),3,5,8(25),9,11,20,22-nonaene], the IC50 turned out to be 0.0007 µM in the assay with A2780 cells and 0.501 µM on CDK2/CycE.

Regarding `CS(=N)(=O)Cc1cc2cc(c1)OCCCCOc1c(F)ccc(c1F)-c1nc(ncc1F)N2` (racemic) [Example 8, (rac)-3,20,23-trifluoro-10-[(S-methylsulfonimidoyl)methyl]-13,18-dioxa-5,7,25-triazatetracyclo[17.3.1.1^2,6.1^8,12]pentacosa-1(23),2(25),3,5,8(24),9,11,19,21-nonaene], the IC50 in the assay with A2780 cells (Homo sapiens, A2780, 72 h) amounted to 0.068 µM; at CDK2/CycE, 6.52 µM.

Regarding `CC1CCCOc2cc(ccc2F)-c2cc(ncc2F)Nc2cc(CS(C)(=N)=O)cc(n2)O1` (single isomer, unassigned) [Example 16, 3,20-difluoro-14-methyl-10-[(S-methylsulfonimidoyl)methyl]-13,18-dioxa-5,7,24-triazatetracyclo[17.3.1.1^2,6.1^8,12]pentacosa-1(23),2(25),3,5,8(24),9,11,19,21-nonaene], the IC50 with A2780 cells amounted to 0.006 µM; against CDK2/CycE it was 0.144 µM.

As for `CS(=N)(=O)Cc1cc2cc(c1)OCCCCOc1cc(ccc1F)-c1nc(ncc1F)N2` (racemic) [Example 4, (rac)-3,20-difluoro-10-[(S-methylsulfonimidoyl)methyl]-13,18-dioxa-5,7,25-triazatetracyclo[17.3.1.1^2,6.1^8,12]pentacosa-1(23),2(25),3,5,8(24),9,11,19,21-nonaene], the IC50 is 0.041 µM in the assay on A2780 cells (Homo sapiens, A2780, 72 h) and 1.54 µM at CDK2/CycE.

As for `CC(C)(C)OC(=O)N=S(C)(=O)Cc1cc2cc(c1)OCCCCCOc1cc(ccc1F)-c1nc(ncc1F)N2` (racemic) [Example 5, (rac)-tert-butyl [{[3,21-difluoro-13,19-dioxa-5,7,26-triazatetracyclo[18.3.1.1^2,6.1^8,12]hexacosa-1(24),2(26),3,5,8(25),9,11,20,22-nonaen-10-yl]methyl}(methyl)oxido-λ^6-sulfanylidene]carbamate], the IC50 in the assay on A2780 cells (Homo sapiens, A2780, 72 h) was greater than 0.1 µM; against CDK2/CycE, greater than 20 µM.

Turning to `CS(=N)(=O)Cc1cc2cc(c1)OCCCCCOc1cc(ccc1F)-c1nc(ncc1F)N2` (racemic) [Example 6, (rac)-3,21-difluoro-10-[(S-methylsulfonimidoyl)methyl]-13,19-dioxa-5,7,26-triazatetracyclo[18.3.1.1^2,6.1^8,12]hexacosa-1(24),2(26),3,5,8(25),9,11,20,22-nonaene], the IC50 is 0.039 µM with A2780 cells (Homo sapiens, A2780, 72 h) and 16.2 µM against CDK2/CycE.

On to `CC1CCCCOc2cc(ccc2F)-c2cc(ncc2F)Nc2cc(CS(C)(=N)=O)cc(n2)O1` (single isomer, unassigned) [Example 21, 3,21-difluoro-14-methyl-10-[(S-methylsulfonimidoyl)methyl]-13,19-dioxa-5,7,25-triazatetracyclo[18.3.1.1^2,6.1^8,12]hexacosa-1(24),2(26),3,5,8(25),9,11,20,22-nonaene], for which the IC50 in the assay with A2780 cells was found to be 0.027 µM; against CDK2/CycE it was 2.45 µM.

Take `CC1CCCOc2cc(ccc2F)-c2cc(ncc2F)Nc2cc(CS(C)(=O)=O)cc(n2)O1` (racemic) [Example 28, 3,20-difluoro-14-methyl-10-[(methylsulfonyl)methyl]-13,18-dioxa-5,7,24-triazatetracyclo[17.3.1.1^2,6.1^8,12]pentacosa-1(23),2(25),3,5,8(24),9,11,19,21-nonaene]: the IC50 in the assay on A2780 cells (Homo sapiens, A2780, 72 h) worked out at 0.016 µM; at CDK2/CycE, 0.36 µM.
